Results taken from patent US20230372346A1, “TREATMENT REGIMENS FOR EXON-20 INSERTION MUTANT EGFR CANCERS” (CULLINAN PEARL CORP., priority 2020, published 2023).

Experiments:
[1] = system: NSCLC harboring EGFR exon 20 insertion mutations; test: Phase 1/2a study, antitumor activity (RECIST v1.1); assay type: in vivo, human
Protocol: This is a Phase 1/2a, open-label, multicenter, first-in-human trial to evaluate the safety and tolerability, PK, PD, and preliminary efficacy of CLN-081 in patients with non-small cell lung cancer (NSCLC) harboring epidermal growth factor receptor (EGFR) exon 20 insertion mutations.
The antitumor activity of study treatment will be assessed according to RECIST v1.1 guideline
As part of this phase 1/2 study, dose levels including 30, 45, 65, 100 and 150 mg BID were explored during the escalation phases. Efficacy expansions were initiated at 30, 65 and 100 mg BID. A Phase 2a expansion was initiated at 100 mg BID after meeting protocol specified safety and efficacy criteria. Tumor assessments were performed at baseline, after 6 weeks of CLN-081 administration and every 9 weeks thereafter.

[2] = system: mutant EGFRs that possess L718Q mutation in exon 18 in combination with ex19del+T790M or L858R+T790M; details: cited from earlier work

## C=CC(=O)N[C@H]1C=C(C)c2c(-c3cnc4ccccc4c3)c3c(N)ncnc3n2C1 [Compound 1, (S)—N-(4-amino-6-methyl-5-(quinolin-3-yl)-8,9-dihydropyrimido[5,4-b]indolizin-8-yl)acrylamide]
[1]; 30 mg BID (n = 8)
  Best response PR, %: 38%
  Best response SD, %: 62%
  Confirmed response, %: 38%
  Disease Control Rate (PR + SD ≥ 6 mo), %: 62%
[1]; 45 mg BID (n = 1)
  Best response SD, %: 100%
[1]; 65 mg BID (n = 14)
  Best response PD, %: (7) %
  Best response PR, %: (50) %
  Best response SD, %: (43) %
  Confirmed response, %: (14) %
  Disease Control Rate (PR + SD ≥ 6 mo), %: (57) %
  Pending confirmation, %: (21) %
  Unconfirmed response, %: (14) %
[1]; 100 mg BID (n = 13)
  Best response PR, %: (54) %
  Best response SD, %: (46) %
  Confirmed response, %: (46) %
  Disease Control Rate (PR + SD ≥ 6 mo), %: (69) %
  Unconfirmed response, %: (8) %
[1]; 100 mg BID, 7/13, 6 confirmed and 1 unconfirmed
  evaluable patients who achieved a PR: 54%
[1]; 150 mg BID (n = 6)
  Best response PR, %: 67%
  Best response SD, %: 33%
  Confirmed response, %: 33%
  Disease Control Rate (PR + SD ≥ 6 mo), %: 83%
  Pending confirmation, %: 33%
[1]; 21 of 42 evaluable patients across dose levels
  objective responses (all partial responses): 50%
[1]; 22/42 across dose levels
  response-evaluable patients who remained on treatment at the data cut-off: 52%
[1]; 27/42 across all doses
  Disease control (PR or SD ≥6 months): 64%
[1]; 41/42 across dose levels
  patients with stable disease (SD) or PR as the best response: 98%
[1]; across dose levels
  patients with disease progression as the best response: one
[1]; heavily-pretreated patients, across EGFR Ins 20 variants and dose levels
  antitumor activity: encouraging antitumor activity
[1]; in vivo
  dose cohorts in which partial responses were registered: all dose cohorts tested so far
  lowest dose cohort at which partial response was reported: 30 mg BID
[1]; of 21 responders, including 5 pending a confirmatory scan
  unconfirmed objective responses, patients: 8
[1]; of the 21 patients achieving an objective response
  confirmed objective responses, patients: 13
[1]; some patients
  response in patients previously treated with poziotinib and TAK788 (mobocertinib): partial responses
[2]; L718Q+ex19del+T790M or L718Q+L858R+T790M
  potency in inhibiting the phosphorylation of mutant EGFRs: intensive cellular potency
[2]; baseline ex19del+T790M or L858R+T790M
  absolute activity and selectivity over baseline mutations compared with osimertinib, erlotinib and Afatinib: higher
